Consider 23 compounds from US10227323B2, “Glucosylceramide synthase inhibitors for the treatment of diseases” (BIOMARIN PHARMACEUTICAL INC., priority 2013, dated 2019).

Each structure is given as a SMILES string.

One test deals with T1, GCS (Canis lupus familiaris, UniProt A0A8I3MXG6).
T1 sequence (A0A8I3MXG6 1-394): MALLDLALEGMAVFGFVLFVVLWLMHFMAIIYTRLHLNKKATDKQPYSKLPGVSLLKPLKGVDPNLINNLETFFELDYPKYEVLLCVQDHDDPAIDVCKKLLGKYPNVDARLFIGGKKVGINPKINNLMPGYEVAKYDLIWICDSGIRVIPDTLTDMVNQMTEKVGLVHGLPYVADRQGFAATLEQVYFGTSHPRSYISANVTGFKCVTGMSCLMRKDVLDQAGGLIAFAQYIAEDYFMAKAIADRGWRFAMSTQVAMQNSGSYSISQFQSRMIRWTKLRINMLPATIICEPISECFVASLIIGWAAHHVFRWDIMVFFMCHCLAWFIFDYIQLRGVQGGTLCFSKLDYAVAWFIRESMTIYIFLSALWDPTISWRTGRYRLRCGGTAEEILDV
Kind of test: Assay 1: GCS Enzymatic Assay (MDCK cell lysate, C6-NBD-Ceramide, LC/MS). To be noted: Table 2; data marked by *. In kind it is biochemical, canine. In outline:
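LC/MS/MS measurement of glucosylceramide and NBD-ceramide after a 1 h, 37 °C reaction with 100 μM UDP-glucose and 10 μM C6-NBD-ceramide gave IC50s or percent inhibition.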
Take `CC1CN(C[C@@H](NC(=O)C(F)(F)CCc2ccc3cc(F)ccc3c2)[C@H](O)c2ccc3c(c2)OCCO3)C1` [Compound 96, N-((1R,2R)-1-(2,3-dihydrobenzo[b][1,4]dioxin-6-yl)-1-hydroxy-3-(3-methylazetidin-1-yl)propan-2-yl)-2,2-difluoro-4-(6-fluoronaphthalen-2-yl)butanamide]: the “% inhibition generated from Assay 1” value was “A* (the compound had a % inhibition of a percent inhibition of greater than or equal to about 50%)”. Same read-out and setting: to `CC(C)Oc1ccc([C@@H](O)[C@@H](CN2CCCC2)NC(=O)C(F)(F)CCc2ccc3cc(F)ccc3c2)cn1` [Compound 97, 2,2-difluoro-4-(6-fluoronaphthalen-2-yl)-N-((1R,2R)-1-hydroxy-1-(6-isopropoxypyridin-3-yl)-3-(pyrrolidin-1-yl)propan-2-yl)butanamide] belongs “A* (the compound had a % inhibition of a percent inhibition of greater than or equal to about 50%)”; to `CC1CN(C[C@@H](NC(=O)C(=O)c2cc3cc(Cl)ccc3o2)[C@H](O)c2ccc3c(c2)OCCO3)C1` [Compound 100, 2-(5-chlorobenzofuran-2-yl)-N-((1R,2R)-1-(2,3-dihydrobenzo[b][1,4]dioxin-6-yl)-1-hydroxy-3-(3-methylazetidin-1-yl)propan-2-yl)-2-oxoacetamide], “B* (the compound had a % inhibition of greater than or equal to about 3% but less than about 50%)”. Same read-out and setting: to `CC(C)Oc1cc([C@@H](O)[C@@H](CN2CCCC2)NC(=O)C(F)(F)CCc2ccc3cc(F)ccc3c2)ccn1` [Compound 114, 2,2-difluoro-4-(6-fluoronaphthalen-2-yl)-N-((1R,2R)-1-hydroxy-1-(2-isopropoxypyridin-4-yl)-3-(pyrrolidin-1-yl)propan-2-yl)butanamide] belongs “A* (the compound had a % inhibition of a percent inhibition of greater than or equal to about 50%)”.

Still in this test, the particulars now being: Table 2; data without asterisk; read-out: IC50 (nM) generated from Assay 1.
Regarding `O=C(N[C@H](CN1CCCC1)[C@H](O)c1cc(F)c2c(c1)OCCO2)C(F)(F)C1Cc2ccc(Cl)cc2C1` (stereo partly drawn) [Compound 93, 2-(5-chloro-2,3-dihydro-1H-inden-2-yl)-2,2-difluoro-N-((1R,2R)-1-(8-fluoro-2,3-dihydrobenzo[b][1,4]dioxin-6-yl)-1-hydroxy-3-(pyrrolidin-1-yl)propan-2-yl)acetamide], the IC50 is below 50 nM. The same measure, in the same setting: to `CC(C)Oc1ccc([C@@H](O)[C@@H](CN2CCCC2)NC(=O)C(F)(F)c2cc3cc(Cl)ccc3o2)cc1Cl` [Compound 94, N-((1R,2R)-1-(3-chloro-4-isopropoxyphenyl)-1-hydroxy-3-(pyrrolidin-1-yl)propan-2-yl)-2-(5-chlorobenzofuran-2-yl)-2,2-difluoroacetamide] belongs below 50 nM. `O=C(N[C@H](CN1CCCC1)[C@H](O)c1cc(F)c2c(c1)OCCO2)C(=O)c1cc2cc(Cl)ccc2o1` [Compound 95, 2-(5-chlorobenzofuran-2-yl)-N-((1R,2R)-1-(8-fluoro-2,3-dihydrobenzo[b][1,4]dioxin-6-yl)-1-hydroxy-3-(pyrrolidin-1-yl)propan-2-yl)-2-oxoacetamide]: the 50% inhibitory concentration (IC50) is below 50 nM. The same measure, in the same setting: to `O=C(N[C@H](CN1CCC1)[C@H](O)c1cc(F)c2c(c1)OCCO2)C(=NO)c1cc2cc(Cl)ccc2o1` [Compound 98, N-((1R,2R)-3-(azetidin-1-yl)-1-(8-fluoro-2,3-dihydrobenzo[b][1,4]dioxin-6-yl)-1-hydroxypropan-2-yl)-2-(5-chlorobenzofuran-2-yl)-2-(hydroxyimino)acetamide] belongs below 50 nM; to `O=C(N[C@H](CN1CCCC1)[C@H](O)c1ccc(OC2CC2)nc1)C(F)(F)c1cc2cc(Cl)ccc2o1` [Compound 99, 2-(5-chlorobenzofuran-2-yl)-N-((1R,2R)-1-(6-cyclopropoxypyridin-3-yl)-1-hydroxy-3-(pyrrolidin-1-yl)propan-2-yl)-2,2-difluoroacetamide], below 50 nM; to `O=C(N[C@H](CN1CCCC1)[C@H](O)c1ccc(OC2CC2)nc1)C(F)(F)CCc1ccc2cc(F)ccc2c1` [Compound 101, N-((1R,2R)-1-(6-cyclopropoxypyridin-3-yl)-1-hydroxy-3-(pyrrolidin-1-yl)propan-2-yl)-2,2-difluoro-4-(6-fluoronaphthalen-2-yl)butanamide], below 50 nM. On the same count and under the same terms, with `CC1CN(C[C@@H](NC(=O)/C(=N/O)c2cc3cc(Cl)ccc3o2)[C@H](O)c2ccc3c(c2)OCCO3)C1` [Compound 102, (E)-2-(5-chlorobenzofuran-2-yl)-N-((1R,2R)-1-(2,3-dihydrobenzo[b][1,4]dioxin-6-yl)-1-hydroxy-3-(3-methylazetidin-1-yl)propan-2-yl)-2-(hydroxyimino)acetamide] the figure was below 50 nM; with `O=C(N[C@H](CN1CCCC1)[C@H](O)c1cc(F)c2c(c1)OCCO2)/C(=N/O)c1cc2cc(Cl)ccc2o1` [Compound 104, (E)-2-(5-chlorobenzofuran-2-yl)-N-((1R,2R)-1-(8-fluoro-2,3-dihydrobenzo[b][1,4]dioxin-6-yl)-1-hydroxy-3-(pyrrolidin-1-yl)propan-2-yl)-2-(hydroxyimino)acetamide], below 50 nM. Same read-out and setting: to `O=C(N[C@H](CN1CCCC1)[C@H](O)c1ccc(OC2CCOCC2)c(Cl)c1)C(F)(F)c1cc2cc(Cl)ccc2o1` [Compound 105, N-((1R,2R)-1-(3-chloro-4-((tetrahydro-2H-pyran-4-yl)oxy)phenyl)-1-hydroxy-3-(pyrrolidin-1-yl)propan-2-yl)-2-(5-chlorobenzofuran-2-yl)-2,2-difluoroacetamide] belongs below 50 nM. In the case of `O=C(N[C@H](CN1CCCC1)[C@H](O)c1ccc2c(c1)OCCO2)/C(CCc1ccc2cc(F)ccc2c1)=N/O` [Compound 106, (E)-N-((1R,2R)-1-(2,3-dihydrobenzo[b][1,4]dioxin-6-yl)-1-hydroxy-3-(pyrrolidin-1-yl)propan-2-yl)-4-(6-fluoronaphthalen-2-yl)-2-(hydroxyimino)butanamide], the half-maximal inhibitory concentration (IC50) is below 50 nM. Consider `CC(C)Oc1ccc([C@@H](O)[C@@H](CN2CCCC2)NC(=O)C(F)(F)CCc2ccc3ccccc3c2)cn1` [Compound 107, 2,2-difluoro-N-((1R,2R)-1-hydroxy-1-(6-isopropoxypyridin-3-yl)-3-(pyrrolidin-1-yl)propan-2-yl)-4-(naphthalen-2-yl)butanamide], for which the concentration for half-maximal inhibition (IC50) is below 50 nM. With `O=C(N[C@H](CN1CCCC1)[C@H](O)c1ccc(OCC(F)(F)F)nc1)C(F)(F)CCc1ccc2ccccc2c1` [Compound 108, 2,2-difluoro-N-((1R,2R)-1-hydroxy-3-(pyrrolidin-1-yl)-1-(6-(2,2,2-trifluoroethoxy)pyridin-3-yl)propan-2-yl)-4-(naphthalen-2-yl)butanamide], the 50% inhibitory concentration (IC50) was in the range of 50 to 5000 nM. On the same count and under the same terms, to `O=C(N[C@H](CN1CCCC1)[C@H](O)c1cc(F)c2c(c1)OCCO2)C(F)(F)CCc1ccc2ccccc2c1` [Compound 109, 2,2-difluoro-N-((1R,2R)-1-(8-fluoro-2,3-dihydrobenzo[b][1,4]dioxin-6-yl)-1-hydroxy-3-(pyrrolidin-1-yl)propan-2-yl)-4-(naphthalen-2-yl)butanamide] belongs below 50 nM. The same measure, in the same setting: with `O=C(N[C@H](CN1CCCC1)[C@H](O)c1ccc(OC2CCOCC2)c(Cl)c1)C(F)(F)CCc1ccc2ccccc2c1` [Compound 110, N-((1R,2R)-1-(3-chloro-4-((tetrahydro-2H-pyran-4-yl)oxy)phenyl)-1-hydroxy-3-(pyrrolidin-1-yl)propan-2-yl)-2,2-difluoro-4-(naphthalen-2-yl)butanamide] the figure was below 50 nM. Regarding `O=C(CCc1ccc2cc(F)ccc2c1)C(=O)N[C@H](CN1CCCC1)[C@H](O)c1cc(F)c2c(c1)OCCO2` [Compound 111, N-((1R,2R)-1-(8-fluoro-2,3-dihydrobenzo[b][1,4]dioxin-6-yl)-1-hydroxy-3-(pyrrolidin-1-yl)propan-2-yl)-4-(6-fluoronaphthalen-2-yl)-2-oxobutanamide], the concentration for half-maximal inhibition (IC50) is below 50 nM.

For `O=C(N[C@H](CN1CCCC1)[C@H](O)c1ccc(OC2CC2)c(Cl)c1)/C(CCc1ccc2cc(F)ccc2c1)=N/O` [Compound 112, (E)-N-((1R,2R)-1-(3-chloro-4-cyclopropoxyphenyl)-1-hydroxy-3-(pyrrolidin-1-yl)propan-2-yl)-4-(6-fluoronaphthalen-2-yl)-2-(hydroxyimino)butanamide], the IC50 was below 50 nM. Still for that read-out and setting: with `O=C(N[C@H](CN1CCCC1)[C@H](O)c1cc(F)c2c(c1)OCCO2)/C(CCc1ccc2cc(F)ccc2c1)=N/O` [Compound 115, (E)-N-((1R,2R)-1-(8-fluoro-2,3-dihydrobenzo[b][1,4]dioxin-6-yl)-1-hydroxy-3-(pyrrolidin-1-yl)propan-2-yl)-4-(6-fluoronaphthalen-2-yl)-2-(hydroxyimino)butanamide] the figure was below 50 nM; with `O=C(N[C@H](CN1CCCC1)[C@H](O)c1ccc(OC2CCOCC2)c(Cl)c1)C(F)(F)C1Cc2ccc(Cl)cc2C1` (stereo partly drawn) [Compound 116, 2-(5-chloro-2,3-dihydro-1H-inden-2-yl)-N-((1R,2R)-1-(3-chloro-4-((tetrahydro-2H-pyran-4-yl)oxy)phenyl)-1-hydroxy-3-(pyrrolidin-1-yl)propan-2-yl)-2,2-difluoroacetamide], below 50 nM. On the same count and under the same terms, to `O=C(N[C@H](CN1CCC1)[C@H](O)c1cc(F)c2c(c1)OCCO2)/C(CCc1ccc2cc(F)ccc2c1)=N/O` [Compound 118, (E)-N-((1R,2R)-3-(azetidin-1-yl)-1-(8-fluoro-2,3-dihydrobenzo[b][1,4]dioxin-6-yl)-1-hydroxypropan-2-yl)-4-(6-fluoronaphthalen-2-yl)-2-(hydroxyimino)butanamide] belongs 50 to 5000 nM.

What is called IC50 is the concentration that inhibits the measured activity by half.
